Data from ChEMBL document CHEMBL5096159, “Annual review of LSD1/KDM1A inhibitors in 2020” (Eur J Med Chem, 2021).

Legend:
[1] = target: T1, Lysine-specific histone demethylase 1A (Homo sapiens, UniProt O60341); assay: Inhibition of LSD1 (unknown origin) by Spectra Max Paradigm Microplate Reader analysis
MDA-MB-231 = assay: Antiproliferative activity against human MDA-MB-231 cells assessed as reduction in cell viability after 24 hrs by MTT assay; format: functional, cell-based; conditions: MDA-MB-231, 24 h
[2] = target: T1, Lysine-specific histone demethylase 1A; assay: Inhibition of recombinant LSD1 (unknown origin) expressed in Escherichia coli BL21 using H3K4me2 as substrate preincubated for 10 mins followed by substrate addition and measured after 30 mins by fluorescence based analysis
[3] = target: T1, Lysine-specific histone demethylase 1A; assay: Inhibition of recombinant LSD1 (unknown origin) using H3K4me2 as a substrate measured after 0.5 hrs by fluorescence based analysis
MGC-803 = assay: Antiproliferative activity against human MGC-803 cells assessed as reduction in cell viability after 72 hrs by MTT assay; format: functional, cell-based; conditions: MGC-803, 72 h
[4] = Cytotoxicity against human GES1 cells assessed as cell viability measured after 72 hrs by MTT assay; format: toxicity, cell-based
BGC-823 = assay: Antiproliferative activity against human BGC-823 cells assessed as reduction in cell viability incubated for 5 days by MTS assay; format: functional, cell-based; conditions: BGC-823, 120 h

SMILES: O=C(/C=C/c1ccc(O)c2c1[C@H](C(=O)O[C@H](Cc1ccc(O)c(O)c1)C(=O)O)[C@@H](c1ccc(O)c(O)c1)O2)O[C@H](Cc1ccc(O)c(O)c1)C(=O)O
- IC50 [1]: 0.11 µM
- IC50 (MDA-MB-231): 55 µM

SMILES: COc1ccc2cc3[n+](cc2c1OC)CCc1cc2c(cc1-3)OCO2 [BERBERINE]
- IC50 [2]: 6.97 µM

SMILES: COc1ccc(-c2coc3cc(O)cc(O)c3c2=O)cc1 [BIOCHANIN]
- IC50 [3]: 2.95 µM
- IC50 (MGC-803): 6.77 µM
- IC50 at 72 h [4]: > 32 µM

SMILES: COc1cc(CNC(=O)CCCC/C=C/C(C)C)ccc1O [CAPSAICIN]
- IC50 (BGC-823): 4.66 µM

SMILES: COc1cc2c(cc1O)-c1cc3ccc(OC)c(OC)c3c[n+]1CC2 [COLUMBAMINE]
- IC50 [2]: 0.47 µM

SMILES: C[C@H]1COC2=C1C(=O)C(=O)c1c2ccc2c1CCCC2(C)C [CRYPTOTANSHINONE]
- IC50 [1]: 9.02 µM

SMILES: Cc1cccc2c3c(ccc12)C1=C(C(=O)C3=O)[C@@H](C)CO1 [DIHYDROTANSHINONE I]
- IC50 [1]: 15.8 µM

SMILES: COc1cc2c(cc1O)CC[n+]1cc3c(OC)c(OC)ccc3cc1-2 [JATRORRHIZINE]
- IC50 [2]: 1.55 µM

SMILES: COc1cc2c(cc1OC)-c1cc3ccc(OC)c(OC)c3c[n+]1CC2 [PALMITINE]
- IC50 [2]: 12.2 µM

SMILES: O=C(/C=C/c1ccc(O)c(O)c1)O[C@H](Cc1ccc(O)c(O)c1)C(=O)O [ROSMARINIC ACID]
- IC50 [1]: 20.9 µM

SMILES: Cc1coc2c1C(=O)C(=O)c1c-2ccc2c(C)cccc12 [TANSHINONE I]
- IC50 [1]: 16.4 µM
